Assay results reported in patent US11319292B2, “Metabolically stable 5-HMF derivatives for the treatment of hypoxia” (King Abdulaziz University, priority 2020, dated 2022).
Values belong to the compound of their own block, whether it stands above or below them.

How the values were obtained:
Hb [1] = molecular target: T1, Hb (Homo sapiens, UniProt P68871+P69905); assay: In vitro time-dependent Hb oxygen equilibrium study using normal whole blood; format: in vitro ADME; settings: 2 mM; normal whole blood 30% hct; 37° C.; 1, 4 and 24 hr
T1 construct: Normal whole blood was collected from adult donors; from tissue; host or cells: normal whole blood of adult donors
Description: Materials and General Procedure: Normal whole blood was collected from adult donors at the Virginia Commonwealth University after informed consent, in accordance with regulations of the IRB for Protection of Human.
Experimental procedure: MMA-409 and the control 5-HMF were used to conduct time-dependent studies on Hb oxygen oxygen equilibrium using normal whole blood. The study was performed in a 96-well deep well (Thermo Scientific) plate, where each compound at 2 mM concentration was added to 600 μL of whole blood (30% hct) and incubated at 37° C. for 24 hr with shaking (at 140 rpm). Additionally, DMSO (1%) alone was also tested as a negative control. At 1, 4 and 24 hr time intervals, 75 μL aliquot of blood was removed from each well using a multichannel pipette and the reaction stopped by freezing at −80° C. until ready for hemoximetry analysis using Hemox™ Analyzer (TCS Scientific Corp.) to assess P50 shifts.^32 The observed P50 shifts values in % P50 shifts were plotted as function of time [hrs].

Hb [2] = molecular target: T2, Hb (Homo sapiens, UniProt P68871+P69905, E7V); assay: Hb oxygen equilibrium study (P50 shift, Hemox Analyzer) on lysate of compound-treated SS cells; format: cell-based; settings: intact SS cells; for activation at 2000 µM: 2 mM compound; for activation at 2000 µM / activation at 5000 µM: read-out: increase in Hb oxygen affinity (ΔP50); for activation at 5000 µM: 5 mM compound; for effect on Hb affinity for oxygen: 2 mM and/or 5 mM
T2 construct: Leftover blood samples from patients with homozygous SS were obtained and utilized; from tissue; host or cells: blood (red cells, then hemolysate) of patients with homozygous SS
From the text: (§1) Materials and General Procedure: Leftover blood samples from patients with homozygous SS were obtained and utilized, based on an approved IRB protocol at the Children's Hospital of Philadelphia, with informed consent.
(§2) Experimental Procedure: The MMA series of compounds (MMA-301, MMA-304, MMA-205, MMA-401, MMA-402, MMA-403, MMA-405, MMA-406, MMA-407, MMA-408, MMA-409 and MMA-410) and the positive controls vanillin and 5-HMF were studied for their abilities to inhibit hypoxia-induced RBC sickling (RBC morphology study), increase Hb oxygen, and/or modify Hb (adduct formation) as previously published.^31,33 Briefly, homozygous SS blood (hematocrit: 20%) suspensions were incubated under air in the absence or presence of 2 and/or 5 mM concentration of test compounds at 37° C. for 1 hr. Following, the suspensions were incubated under hypoxic condition (2.5% oxygen) at 37° C. for 2 hr. Aliquot samples were fixed with 2% glutaraldehyde solution without exposure to air, and then subjected to microscopic morphological analysis. The residual samples were washed in phosphate-buffered saline, and hemolyzed in hypotonic lysis buffer for the Hb oxygen equilibrium and Hb adduct experiments. For the Hb oxygen equilibrium study, approximately 100 μl aliquot samples from the lysate were added to 4 ml of 0.1M potassium phosphate buffer, pH 7.0, in a cuvette and subjected to hemoximetry analysis using Hemox™ Analyzer (TCS Scientific Corp.) to assess P50 shifts. Another aliquot from the lysate was also subjected to Hb adduct formation study using cation-exchange HPLC (Hitachi D-7000 Series, Hitachi Instruments, Inc., San Jose, Calif.) with a weak cation-exchange column (Poly CAT A: 30 mm×4.6 mm, Poly LC, Inc., Columbia, Md.). To determine the binding of the MMA compounds to either α- or β-globin chains, the hemolysates were subjected to reversed-phase (RP) HPLC on a Hitachi D-7000 HSM Series, using a Jupiter 5 μm C-4 50×4.6 mm column, (Phenomenex®, Torrence, Calif.) and a gradient from 20% to 60% acetonitrile in 0.3% trifluoroacetic acid in 15 minutes, with UV detection at 215 nm.

intact SS cells = assay: Inhibition of hypoxia-induced RBC sickling (RBC morphology study) in homozygous SS blood; format: cell-based, human; settings: SS blood hematocrit 20%, 2.5% oxygen, 37° C., 2 hr
From the text: as §1, §2

βCys93 of Hb = βCys93 of Hb (Homo sapiens, UniProt P68871); assay: Reactivity toward βCys93 of Hb (DTNB disulfide exchange, absorbance at 412 nm); format: biochemical; settings: 2 mM compound, Hb 50 μM, four hours at 25° C.
Description: Experimental Procedure: Aqueous solution of Hb (50 μM) was mixed with MMA 409 or MMA 410 (2 mM). Additionally, Hb was mixed with phosphate buffered saline (PBS) to serve as a negative control. […] Ethacrynic acid, which is known to bind to the thiols of hemoglobin and thus limits the reaction between DTNB (5,5′-dithiobis-(2-nitrobenzoic acid) and βCys93, was studied as a positive control.^42 The mixtures were incubated for four hours at 25° C., and then centrifuged with washing to separate excess reagents from the Hb. The washed hemoglobin was stored overnight at 4° C. After, 5 μL of 100 mM DTNB was added to 25 μL of each Hb solution, and these solutions were each diluted to 500 μL in 0.1 M phosphate buffer and were incubated for an hour. Another 25 μL of each Hb solution was diluted to 500 μL in buffer to serve as a non-DTNB control. The tubes containing these solutions were centrifuged, and the collected yellow filtrate was quantified by measuring absorbance at 412 nm using a spectrophotometer as previously described.^42

α- or β-globin chains = molecular target: T3, α- or β-globin chains (Homo sapiens, UniProt P68871+P69905, E7V); assay: Reversed-phase HPLC of hemolysates for binding to α- or β-globin chains; format: cell-based; settings: 2 mM and 5 mM; intact SS cells; reverse-phase HPLC
T3 construct: Leftover blood samples from patients with homozygous SS were obtained and utilized; from tissue; host or cells: blood (red cells, then hemolysate) of patients with homozygous SS
From the text: as §1
(§3) Experimental Procedure: The MMA series of compounds (MMA-301, MMA-304, MMA-205, MMA-401, MMA-402, MMA-403, MMA-405, MMA-406, MMA-407, MMA-408, MMA-409 and MMA-410) and the positive controls vanillin and 5-HMF were studied for their abilities to inhibit hypoxia-induced RBC sickling (RBC morphology study), increase Hb oxygen, and/or modify Hb (adduct formation) as previously published.^31,33 Briefly, homozygous SS blood (hematocrit: 20%) suspensions were incubated under air in the absence or presence of 2 and/or 5 mM concentration of test compounds at 37° C. for 1 hr. Following, the suspensions were incubated under hypoxic condition (2.5% oxygen) at 37° C. for 2 hr. Aliquot samples were fixed with 2% glutaraldehyde solution without exposure to air, and then subjected to microscopic morphological analysis. The residual samples were washed in phosphate-buffered saline, and hemolyzed in hypotonic lysis buffer for the Hb oxygen equilibrium and Hb adduct experiments. […]

Hb [3] = molecular target: T2, Hb; assay: Hb adduct formation study by cation-exchange HPLC after incubation with intact SS cells; format: cell-based; settings: 2 mM and/or 5 mM
From the text: as §1, §3

[4] = in-vivo; aldehyde protected by L-cysteine; cited from earlier work

time course of biological activity (P50 shift) over 24 hr (Hb [1]): declined rapidly
activation at 2000 µM (Hb [2]): 33%
Compound: O=Cc1ccc(CO)o1 [5-HMF, 5-Hydroxymethylfurfural]
RBC sickling (reduced to) (intact SS cells; 2 mM compound): 50%
RBC sickling (reduced to) (intact SS cells; 5 mM compound): 14%

activation at 2000 µM (Hb [2]): 12.7%
activation at 5000 µM (Hb [2]): 18.2%
Compound: CC(=O)/C=C/c1ncc[nH]1 [MMA-301, (E)-4-(1H-imidazol-2-yl)but-3-en-2-one]

melting point: 138 °C
Compound: O=C(O)/C=C/c1ccc(CO)o1 [MMA-401, (E)-3-(5-(hydroxymethyl)furan-2-yl)acrylic acid]

effect on Hb affinity for oxygen (Hb [2]): no effect
Compound: COCc1ccc(C(=O)C(F)(F)F)o1 [MMA-405, 2,2,2-trifluoro-1-(5-(methoxymethyl)furan-2-yl)ethan-1-one]

effect on Hb affinity for oxygen (Hb [2]): no effect
melting point: 66 °C
Compound: COC(=O)/C=C/c1ccc(CO)o1 [MMA-406, methyl (E)-3-(5-(hydroxymethyl)furan-2-yl)acrylate]

% free thiols of βCys93 (βCys93 of Hb): 54%
Compound: C=C(CC)C(=O)c1ccc(OCC(=O)O)c(Cl)c1Cl [ethacrynic acid, Ethacrynic acid, reference compound]

Continued, compound first:

Compound: NC(=O)C(=O)c1ncc[nH]1 [MMA-304]
activation at 2000 µM (Hb [2]): 16.5%
activation at 5000 µM (Hb [2]): 22.1%

Compound: NC(=O)/C=C/c1ccc(CO)o1 [MMA-403, (E)-3-(5-(hydroxymethyl)furan-2-yl)acrylamide]
melting point: 131 to 156 °C

Compound: CC(=O)/C=C/c1ccc(CO)o1 [MMA-404, (E)-4-(5-(hydroxymethyl)furan-2-yl)but-3-en-2-one]
melting point: 20 °C

Compound: C=CC(=O)c1ccc(COc2ccccc2)o1 [MMA-409]
time course of biological activity (P50 shift) over 24 hr (Hb [1]): sustained throughout the 24 hr experiment
activation at 2000 µM (Hb [2]): 22%
activation at 5000 µM (Hb [2]): 52%
% free thiols of βCys93 (βCys93 of Hb): 46%
RBC sickling (reduced to) (intact SS cells; 2 mM compound): 49%
RBC sickling (reduced to) (intact SS cells; 5 mM compound): 18%
adduct formation with globin chain (α- or β-globin chains): exclusive adduct formation with the β-chain
Hb modification (adduct formation) (Hb [3]): significant Hb modification

Compound: C#CC(=O)c1ccc(COc2ccccc2)o1 [MMA-410]
% free thiols of βCys93 (βCys93 of Hb): 54%

Compound: O=C(O)C1CSC(c2ccc(CO)o2)N1 (centres unmarked) [thiazolidine complex of 5-HMF]
extension of 5-HMF half-life [4]: 2 fold

Compound: COc1cc(C=O)ccc1O [vanillin, reference compound]
activation at 2000 µM (Hb [2]): 12%
activation at 5000 µM (Hb [2]): 27%
RBC sickling (reduced to) (intact SS cells; 2 mM compound): 57%
RBC sickling (reduced to) (intact SS cells; 5 mM compound): 36%
